Measurements taken from patent publication US20110171136A1, “OPTICAL IMAGING PROBES” (priority 2002, published 2011).

Test system: A431 cells
Test: in vitro uptake competition experiments with glucose
Type: cell-based, human
Conditions: 1 mM (monovalent) or 0.7 mM (bivalent) probe, 30 minutes, 50 and 100 mM glucose respectively, FIGS. 3B and 3D
Description: The A431 cell line was obtained from the American Type Culture Collection and grown in DMEM with 4.5 g/l glucose, supplemented with 10% fetal bovine serum (Life Technologies, NY) and cultured in a humidified atmosphere containing 5% CO2 and 95% air at 37° C.
Utilizing the monovalent and bivalent Cy5.5-conjugated glucose probes, in vitro uptake competition experiments were performed by incubating A431 cells with 1 mM (monovalent) or 0.7 mM (bivalent) of each probe, for 30 minutes, in the presence of 50 and 100 mM glucose, respectively. After removal of the medium, cells were rinsed with ice-cold PBS and visualized under confocal microscopy. […] Under the same conditions, free Cy5.5 uptake by A431 cells was not inhibited by incubation with glucose.

CCN1\C(=C/C=C/C=C/C2=[N+](CCCCCC(=O)O)c3ccc4c(S(=O)(=O)O)cc(S(=O)(=O)O)cc4c3C2(C)C)C(C)(C)c2c1ccc1c(S(=O)(=O)[O-])cc(S(=O)(=O)O)cc21 [free Cy5.5]
inhibition of cellular uptake of probe by glucose: not inhibited
